Where “and” joins values, the source holds several entries; their conditions need not be identical. Identical values can stand only once. Like-named read-outs stand apart in the source and are kept apart here.
How the values were obtained:
[1] = i.v. pharmacokinetic parameters and oral bioavailability in male Sprague Dawley rat; type: in vivo; details: for half-life: rat, 2 mg/kg, two-compartment model
Protocol: (§1) Procedure 4: The bioavailability of test compounds was investigated using the following bio-equivalence studies.
A Study to Estimate the i.v. Pharmacokinetic Parameters and Oral Bioavailability in Male Sprague Dawley Rat
This study was carried out using a crossover design on four separate study days. Three rats received surgically-implanted femoral vein catheters for infusion of test molecules at least three days prior to the start of the study. All doses in this study were prepared using crystalline test compound.
On study day one, the animals (fed) received test compound as a 30-min intravenous infusion at a target dosage of 4.0 umol/kg (4.0 mL/kg). The dose solution was prepared in 20% aqueous Encapsin® (pH=8.0) and contained 1% DMSO. Encapsin® (Cerestar USA Inc., Hammond, Ind.) is hydroxypropyl-beta-cyclodextrin, a cyclic oligosaccharide used to enhance solubility of compounds that otherwise would require formulation using non-aqueous solvents.
On study day two, the animals (fasted) received test compound as a solution at a target dosage of 8 umol/kg by oral gavage (16 mL/kg). The dose solution was prepared in 5% aqueous succinated porcine gelatin (pH=7.5) and contained 1% DMSO. Blood samples were collected from a lateral tail vein. A 25-uL aliquot of each whole blood sample was added to 25 uL of water and allowed to stand on ice for approximately 5 min to facilitate complete hemolysis; samples then were stored frozen until analvsis. Blood concentrations of test compound were quantified by LC/MS/MS (LLQ=10.0 ng/mL). […] Various compartmental models and weighting paradigms were employed; a two-compartment model with first-order elimination from the central compartment and iterative least squares weighting with a weight of 1/Y^2 provided the best fit to the observed data, according to standard model selection criteria (i.e., Akaike's Information Criterion, Schwartz Criterion, and sum of squared residuals). Pharmacokinetic parameters were calculated using the best-fit compartmental model; all calculations that required the use of AUC values (including bioavailability) were performed using the AUC recovered from noncompartmental analysis.

[2] = tested on: release of soluble CD23 from RPMI 8866 cell plasma membranes; assay: RPMI 8866 cell membrane CD23 cleavage activity assay; type: biochemical, human; details: RPMI 8866 membranes, 37° C., sCD23 by EIA; read-out: IC50 (50% inhibition of production of sCD23)
Protocol: Procedure 1: The ability of test compounds to inhibit the release of soluble CD23 was investigated by use of the following procedure.
RPMI 8866 Cell Membrane CD23 Cleavage Activity Assay
Plasma membranes from RPMI 8866 cells, a human Epstein-Barr virus transformed B-cell line (Sarfati et al., Immunology 60 [1987] 539-547) expressing high levels of CD23 are purified using an aqueous extraction method. Cells resuspended in homogenization buffer (20 mM HEPES pH 7.4, 150 mM NaCl, 1.5 mM MgCl2, 1 mM DTT) are broken by N2 cavitation in a Parr bomb and the plasma membrane fraction mixed with other membranes is recovered by centrifugation at 10,000×g. […]
The fractionated membranes are incubated at 37° C. for times up to 4 hrs to produce fragments of CD23 which are separated from the membrane by filtration in 0.2 micron Durapore filter plates (Millipore) after quenching the assay with 5 uM Preparation 1 from P 30994. sCD23 released from the membrane is determined using the EIA kit from The Binding Site (Birmingham, UK) or a similar one utilizing MHM6 anti-CD23 mAb [Rowe et al., Int. […] The amount of soluble CD23 made by 0.5 ug membrane protein in a total volume of 50 ul phosphate-buffered saline is measured by EIA and compared to the amount made in the presence of various concentrations of inhibitors. […]

[3] = tested on: TNFα release from human monocytes; assay: Inhibition of release of TNFα from human monocytes stimulated by LPS; type: cell-based; details: at 10 uM; LPS 200 ng/ml, 18-20 hrs
Protocol: Procedure 3: The ability of test compounds to inhibit TNF release was investigated using the following procedure.
Assay for Inhibition of Release of TNFα From Human Monocytes Stimulated by Lipopolysaccharide (LPS) Endotoxin
Human monocytes, cultured in RPMI 1640 medium supplemented with 10% fetal calf serum, are centrifuged at 1000×g for 5 min and then resuspended in medium at 2×10^6 cells/ml. The cell suspension is aliquoted in 24 well plates, 1 ml per well. Compounds to be tested are dissolved in neat dimethyl sulfoxide (DMSO) and added to culture with the final DMSO concentration at 0.1%. Compounds are added to cells in triplicate wells. TNF α release is stimulated by addition of LPS to the cells at a final concentration of 200 ng/ml. Appropriate control cultures are set up in triplicates also. The plates are incubated for 18-20 hrs at 37° C., 5% CO2, then centrifuged at 1000×g for 5 min. A specific ELISA for human TNFα (SmithKline Beecham) is used to measure TNF levels in the cell-free culture supernatants.

[4] = i.v. pharmacokinetic parameters and oral bioavailability in male Beagle dogs; type: in vivo; details: Dog
Protocol: as §1
A Study to Estimate the i.v. Pharmacokinetic Parameters and Oral Bioavailability in Male Beagle Dogs
This study was conducted using a crossover design on two separate study days, seven days apart. Three male Beagle dogs were used in this study. On each study day, a catheter was temporarily placed in a cephalic vein for blood sampling; on study day one only, a catheter was also temporarily placed in a saphenous vein for i.v. infusion.
(§2) On study day one, each animal received test compound (2.0 umol/kg target dose) as a 1-h intravenous infusion (4.0 mL/kg). The dose solution was prepared in 20% aqueous Encapsin® (pH=8.0) and contained 1% DMSO. Encapsin® (Cerestar USA Inc., Hammond, Ind.) is hydroxypropyl-beta-cyclodextrin, a cyclic oligosaccharide (7 glucose units) used to enhance solubility in the preparation of dose solutions that otherwise would require formulation using non-aqueous solvents.
On study day two, each animal received test compound (6.0 umol/kg target dose ) by oral gavage (8.0 mL/kg). The dose solution was prepared in 5% aqueous succinated porcine gelatin (pH=7.5) and contained 1% DMSO.
Plasma concentrations of test compound were quantified by LC/MSIMS (LLQ=10 ng/mL). Noncompartmental methods were used for analysis of plasma concentration versus time data.

[5] = i.v. pharmacokinetic parameters and oral bioavailability in male Cynomolgus monkeys; type: in vivo
Protocol: as §1
A Study to Estimate the i.v. Pharmacokinetic Parameters and Oral Bioavailability in Male Cynomolgus Monkeys
This study was conducted using a crossover design on two separate studv days, seven days apart. Three male Cynomolgus monkeys were used for this study. On both study days, a catheter was placed in a saphenous vein for collection of blood samples. On study day one, a catheter also was temporarily placed in a contralateral saphenous vein for i.v. infusion.
as §2, with “animal (fasted)” for “animal”
On study day two, each animal (fasted) received test compound (6.0 umol/kg target dose) by oral gavage (8.0 mL/kg). The dose solution was prepared in 5% aqueous succinated porcine gelatin (pH=8.0) and contained 1% DMSO.
Blood samples were obtained from the femoral vein catheter; plasma was isolated by centrifugation. Plasma concentrations of test compound were quantified by LC/MS/MS (LLQ=10 ng/mL). Noncompartmental methods were used for pharmacokinetic analysis of plasma concentration versus time data.

[6] = male, Sprague Dawley, whole blood, iv, i.v. dose = 2.0 mg/kg
[7] = male, Beagle, plasma, iv dose = 0.96 mg/kg
[8] = Monkey, iv dose = 0.92 mg/kg, individual values, 0.92 mg/kg

Oral F ([1]; fasted, oral gavage 3.7 mg/kg solution vs i.v. 2.0 mg/kg): 50.6 ± 10.6%
half-life ([1]; male, Sprague Dawley, whole blood, iv, i.v. dose = 2.0 mg/kg, read-out: T1/2 (α)): 0.18 ± 0.0883 h
half-life ([1]; male, Sprague Dawley, whole blood, iv, i.v. dose = 2.0 mg/kg, read-out: T1/2 (β)): 3.9 ± 2.32 h
Cmax ([1]; male, Sprague Dawley, whole blood, iv, 30-min i.v. infusion, i.v. dose = 2.0 mg/kg, blood): 1340 ± 296 ng/mL
MRT [1, 6]: 2.13 h
clearance [1, 6]: 26.4 ± 8.5 mL/min/kg
Vd ([1]; male, Sprague Dawley, whole blood, iv, i.v. dose = 2.0 mg/kg, read-out: Vdss): 3.25 ± 1.7 L/kg
IC50 [2]: 60 nM
T1/2 ([4]; iv dose = 0.96 mg/kg, individual values, 0.96 mg/kg): 4.2 h and 4.32 h and 0.817 h
Oral F ([4]; oral gavage, po dose = 2.7 mg/kg vs iv 0.96 mg/kg): 29.0 ± 3.7%
MRT [4, 7]: 1.07 h
clearance [4, 7]: 10.6 ± 4.5 mL/min/kg
Vd ([4]; male, Beagle, plasma, iv dose = 0.96 mg/kg, read-out: Vdss): 0.563 ± 0.204 L/kg
Cmax ([4]; male, Beagle, 1-h i.v. infusion, iv dose = 0.96 mg/kg, plasma): 1410 ± 465 ng/mL
Oral F ([5]; Monkey, fasted, oral gavage 2.8 mg/kg Solution vs iv 0.92 mg/kg, individual values): 21.1% and 6.0% and 22.5%
MRT [5, 8]: 5.18 h and 0.992 h and 1.14 h
T1/2 [5, 8]: 11.5 h and 1.42 h and 3.47 h
Vdss [5, 8]: 4.09 L/kg and 1.11 L/kg and 0.827 L/kg
Cmax ([5]; male, cynomolgus monkey, 1-h i.v. infusion, iv dose = 0.92 mg/kg, plasma): 1010 ± 175 ng/mL
clearance ([5]; male, cynomolgus monkey, plasma, iv dose = 0.92 mg/kg): 14.7 ± 3.6 mL/min/kg
SMILES: CNC(=O)[C@@H](NC(=O)[C@H](Cc1ccc2ccccc2c1)[C@H](OC(C)C)C(=O)NO)C(C)(C)C [N′-[4-(N-hydroxyamino)-3S-isopropoxy-2R-(2-naphthylmethyl)succinyl]-S-tert-leucine methylamide]
effect on TNF release [3]: no effect

— patent US6673965B1, “Hydroxamic acid derivative as inhibitor of the formation of soluble human CD23” (SmithKline Beecham P.L.C., priority 1999, dated 2004)
